Consider 17 compounds from patent US9226929B2, “Pharmaceutically active disubstituted triazine derivatives” (Bayer Intellectual Property GMBH, priority 2011, dated 2016).

The target in assay [1] is T1, CDK9/Cyclin T1 (Homo sapiens, UniProt P50750).
T1 construct: His; purchased Invitrogen
Briefly: LanthaScreen Eu Kinase Binding Assay, CDK9/Cyclin T1. The note with it: tracer 236, read-out: CDK9/Cyclin T1 (activity range), Kd. On the procedure:
(§1) This protocol describes how the LanthaScreen Eu Kinase Binding Assay was performed to determine dissociation constants (Kd) of compounds of general formula (I) and CDK/Cyclin complexes. The principle behind this assay is based upon the binding and displacement of an Alexa Fluor 647-labeled tracer, which binds to the active site of kinases. Binding of the tracer to the kinase is detected using a Eu-labeled antibody. Simultaneous binding of both the tracer and antibody to the kinase gives rise to a FRET-signal. Binding of an inhibitor to the kinase competes for binding with the tracer, resulting in a loss of FRET.
(§2) The compounds of general formula (I) summarized in Table 1 were diluted from a 10 mM DMSO stock solution 1:10 in a total volume of 15 μL DMSO. This compound predilution was then serial diluted 1:3 over 8 steps in DMSO and briefly spun down. Each compound solution was now diluted 1:33.33 in kinase buffer (HEPES: 20 mM, pH: 8.0; MgCl2: 10 mM; DTT: 1 mM; Brij-35: 0,01%), mixed thoroughly and spun down. For every sample, 5 μL of the diluted compound were mixed with 5 μL tracer working solution (e.g. 60 nM tracer 236 in kinase buffer for CDK2/Cyclin A) and 5 μL CDK/Cyclin/Anti-GST-AB-working solution (e.g. 15 nM CDK2/Cyclin A, 1:250 dilution of Anti-GST-AB in kinase buffer) in a well of a small volume 384 well plate (Corning Incorporated, Corning, N.Y., USA; order no. 3673). The tracer concentration was adjusted to its dissociation constant (Kd) for the CDK/Cyclin, which was 30 nM for CDK2/Cyclin A, CDK7/Cyclin H and CDK9/Cyclin T1, 20 nM for CDK8/Cyclin C, and 35 nM for CDK9/Cyclin K. For negative controls, in each well 5 μL of DMSO working solution (3% DMSO diluted in kinase buffer) was mixed with 5 μL Anti-GST-AB working solution (e.g. 1:250 dilution of Anti-GST-AB in kinase buffer for CDK2/Cyclin A) and 5 μL Tracer working solution (e.g. 60 nM Tracer 236 in kinase buffer for CDK2/Cyclin A). For positive controls, in each well 5 μL of DMSO working solution (3% DMSO diluted in kinase buffer) was mixed with 5 μL CDK/Cyclin/Anti-GST-AB-working solution: (e.g. 15 nM CDK2/Cyclin A, 1:250 dilution of Anti-GST-AB in kinase buffer) and 5 μL Tracer working solution (e.g. 60 nM Tracer 236 in kinase buffer for CDK2/Cyclin A). Positive and negative controls were calculated from at least 8 different sample wells. The 384 well plates were mixed in a Teleshaker plate mixer (Beckman Coulter, Brea, Calif., USA) at 2000 rpm for 40 sec, and incubated for 1 h at room temperature before reading. The FRET signal was measured at 340 nm excitation, 665 nm and 615 nm emission (for the kinase tracer and LanthaScreen Eu-AB, respectively) with an Envision spectrophotometer (Perkin Elmer, Waltham, Mass., USA) with […]. Kd values were determined from the sigmoidal dose response curves with the software Quattro Workflow (Quattro GmbH, Munich, Germany).
A general note: Time-resolved FRET reads energy transfer from a long-lived donor to a nearby acceptor.

Assay [2] has as its target T2, CDK9/Cyclin K (Homo sapiens, UniProt P50750).
T2 construct: His; purchased Invitrogen
Description: LanthaScreen Eu Kinase Binding Assay, CDK9/Cyclin K. The note with it: tracer 236, read-out: CDK9/Cyclin K (activity range), Kd. On the procedure: as §1, §2

Assay [3] has as its target T3, CDK7/CyclinH/MAT1 (Homo sapiens, UniProt P50613).
T3 construct: His; purchased Carna Biosciences
Description: LanthaScreen Eu Kinase Binding Assay, CDK7. As to conditions: tracer 236, read-out: CDK7 (activity range), Kd. On the procedure:
as §1, §2

For assay [4], the target named is T4, CDK2/CyclinA (Homo sapiens, UniProt P24941).
T4 construct: GST; purchased Proqinase
Description: LanthaScreen Eu Kinase Binding Assay, CDK2. The note with it: tracer 236, read-out: CDK2 (activity range), Kd. On the procedure:
as §1, §2

Some results are limits rather than exact numbers.

T2 sequence (P50750 whole entry): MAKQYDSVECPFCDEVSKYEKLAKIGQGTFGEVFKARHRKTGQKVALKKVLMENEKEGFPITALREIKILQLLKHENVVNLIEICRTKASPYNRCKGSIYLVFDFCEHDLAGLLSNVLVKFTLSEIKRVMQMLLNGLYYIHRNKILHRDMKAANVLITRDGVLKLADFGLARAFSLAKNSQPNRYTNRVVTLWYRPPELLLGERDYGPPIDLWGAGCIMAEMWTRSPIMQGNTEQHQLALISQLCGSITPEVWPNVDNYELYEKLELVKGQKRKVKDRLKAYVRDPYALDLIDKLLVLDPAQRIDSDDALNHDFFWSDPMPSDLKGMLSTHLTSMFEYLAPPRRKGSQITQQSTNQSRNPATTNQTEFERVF
T2 sequence (O75909 1-357 isoform O75909-1 partner): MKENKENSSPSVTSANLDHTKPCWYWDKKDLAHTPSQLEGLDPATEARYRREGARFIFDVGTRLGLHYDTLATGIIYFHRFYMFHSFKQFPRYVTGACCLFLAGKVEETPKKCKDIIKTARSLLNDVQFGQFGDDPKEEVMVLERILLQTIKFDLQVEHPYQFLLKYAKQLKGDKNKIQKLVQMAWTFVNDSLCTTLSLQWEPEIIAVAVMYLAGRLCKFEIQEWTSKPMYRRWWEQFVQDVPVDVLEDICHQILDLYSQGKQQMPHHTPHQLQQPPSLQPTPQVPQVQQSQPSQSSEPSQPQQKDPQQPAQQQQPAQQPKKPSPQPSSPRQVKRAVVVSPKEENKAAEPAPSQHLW
T1 sequence (P50750 whole entry): as the sequence (P50750 whole entry) above
T1 sequence (O60563 whole entry partner): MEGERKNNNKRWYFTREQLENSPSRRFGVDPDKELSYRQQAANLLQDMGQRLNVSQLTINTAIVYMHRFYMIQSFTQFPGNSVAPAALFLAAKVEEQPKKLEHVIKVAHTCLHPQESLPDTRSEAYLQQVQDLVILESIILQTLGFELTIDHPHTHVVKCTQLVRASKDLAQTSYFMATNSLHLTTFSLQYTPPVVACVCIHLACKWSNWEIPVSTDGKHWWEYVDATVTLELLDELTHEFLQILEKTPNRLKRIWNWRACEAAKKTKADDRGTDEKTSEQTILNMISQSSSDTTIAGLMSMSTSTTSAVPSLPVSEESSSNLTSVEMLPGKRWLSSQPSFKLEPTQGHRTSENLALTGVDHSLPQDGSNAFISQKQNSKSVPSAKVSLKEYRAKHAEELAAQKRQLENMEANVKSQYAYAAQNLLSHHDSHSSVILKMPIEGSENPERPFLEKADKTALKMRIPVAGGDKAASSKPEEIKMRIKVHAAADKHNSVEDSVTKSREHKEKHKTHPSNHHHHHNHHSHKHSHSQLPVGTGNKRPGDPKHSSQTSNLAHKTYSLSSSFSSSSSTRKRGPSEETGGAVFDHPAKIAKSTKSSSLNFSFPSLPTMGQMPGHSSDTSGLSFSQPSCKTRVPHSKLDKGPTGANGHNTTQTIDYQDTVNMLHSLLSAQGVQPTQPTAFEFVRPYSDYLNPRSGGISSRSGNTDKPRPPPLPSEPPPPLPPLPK
T3 sequence (P50613 whole entry): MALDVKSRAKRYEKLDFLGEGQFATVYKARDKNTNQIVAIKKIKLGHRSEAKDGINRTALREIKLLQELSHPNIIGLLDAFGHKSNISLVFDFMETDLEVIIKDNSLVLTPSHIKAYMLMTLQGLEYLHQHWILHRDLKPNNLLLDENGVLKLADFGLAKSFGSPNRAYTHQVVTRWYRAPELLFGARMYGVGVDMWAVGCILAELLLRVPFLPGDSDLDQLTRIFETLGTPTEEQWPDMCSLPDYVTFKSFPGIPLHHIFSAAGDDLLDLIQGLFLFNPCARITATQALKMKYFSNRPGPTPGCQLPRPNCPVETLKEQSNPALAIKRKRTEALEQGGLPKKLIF
T3 sequence (P51946 whole entry partner): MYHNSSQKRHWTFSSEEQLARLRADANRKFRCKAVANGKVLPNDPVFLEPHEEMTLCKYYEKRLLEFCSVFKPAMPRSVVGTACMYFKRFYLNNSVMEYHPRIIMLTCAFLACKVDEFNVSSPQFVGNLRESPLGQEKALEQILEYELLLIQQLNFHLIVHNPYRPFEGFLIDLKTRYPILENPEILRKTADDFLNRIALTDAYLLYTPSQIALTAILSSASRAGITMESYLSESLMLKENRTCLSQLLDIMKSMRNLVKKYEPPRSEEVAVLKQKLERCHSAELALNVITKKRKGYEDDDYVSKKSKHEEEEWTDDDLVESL
T3 sequence (P51948 whole entry partner): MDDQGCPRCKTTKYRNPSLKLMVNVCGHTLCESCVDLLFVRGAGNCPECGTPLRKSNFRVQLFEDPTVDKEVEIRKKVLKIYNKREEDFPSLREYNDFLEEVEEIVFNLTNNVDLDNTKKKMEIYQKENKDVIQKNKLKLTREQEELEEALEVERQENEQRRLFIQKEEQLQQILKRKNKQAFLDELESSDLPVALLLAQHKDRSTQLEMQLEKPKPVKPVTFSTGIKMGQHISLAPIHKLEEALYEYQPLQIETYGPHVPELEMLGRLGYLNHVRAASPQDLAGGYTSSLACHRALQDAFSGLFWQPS

With `NS(=O)(=O)Cc1cccc(Nc2ncnc(N3CCOCC3)n2)c1` [Compound B10, 3-[(4-(Morpholin-4-yl)-1,3,5-triazin-2-yl)amino]benzenemethane sulfonamide], the Kd in assay [1] was 0.1 to 1 µM; in assay [2] it was 0.1 to 1 µM; in assay [3], 1 to 10 µM; in assay [4], 1 to 10 µM.

Regarding `COC[C@@H]1CCCN1c1ncnc(Nc2cccc(CS(N)(=O)=O)c2)n1` [Compound B18, (S)-3-[(4-(2-(Methoxymethyl)pyrrolidin-1-yl)-1,3,5-triazin-2-yl)amino]benzenemethanesulfonamide], the Kd in assay [1] was 1 to 10 µM; in assay [2] it was > 10 µM; in assay [3], > 10 µM; in assay [4], > 10 µM.

For the compound `NS(=O)(=O)Cc1cccc(Nc2ncnc(N3CCC[C@@H]3CO)n2)c1` [Compound B24, (R)-3-[(4-(2-(Hydroxymethyl)pyrrolidin-1-yl)-1,3,5-triazin-2-yl)amino]-benzenemethanesulfonamide], the Kd in assay [1] was 1 to 10 µM; in assay [2], 1 to 10 µM; in assay [3], > 10 µM; in assay [4] it was > 10 µM.

Take `COC[C@H]1CCN1c1ncnc(Nc2cccc(CS(N)(=O)=O)c2)n1` [Compound B35, (R)-3-[(4-(2-(Methoxymethyl)azetidin-1-yl)-1,3,5-triazin-2-yl)amino]-benzenemethanesulfonamide]: the Kd in assay [1] was 0.1 to 1 µM; in assay [2], 1 to 10 µM; in assay [3] it was > 10 µM; in assay [4], > 10 µM.

As for `NS(=O)(=O)Cc1cccc(Nc2ncnc(N3CCCc4ccccc43)n2)c1` [Compound B42, 3-[(4-(3,4-Dihydroquinolin-1(2H)-yl)-1,3,5-triazin-2-yl)amino]-benzenemethanesulfonamide], the Kd in assay [1] is < 0.1 µM; in assay [2], < 0.1 µM; in assay [3], > 10 µM; in assay [4], 0.1 to 1 µM.

For `NS(=O)(=O)Cc1cccc(Nc2ncnc(N3CCC[C@H]3CO)n2)c1` [Compound B25, (S)-3-[(4-(2-(Hydroxymethyl)pyrrolidin-1-yl)-1,3,5-triazin-2-yl)amino]-benzenemethanesulfonamide], the Kd was 1 to 10 µM in assay [1], 1 to 10 µM in assay [2], > 10 µM in assay [3] and > 10 µM in assay [4].

Regarding `COC[C@H]1CCCCN1c1ncnc(Nc2cccc(CS(N)(=O)=O)c2)n1` [Compound B5, (R)-3-[(4-(2-Methoxymethylpiperidin-1-yl)-1,3,5-triazin-2-yl)amino]-benzenemethanesulfonamide], the Kd in assay [1] was 0.1 to 1 µM; in assay [2] it was 0.1 to 1 µM; in assay [3] it was > 10 µM; in assay [4], > 10 µM.

With `CC(C)(C)OC(=O)NCC1CCCCN1c1ncnc(Nc2cccc(CS(N)(=O)=O)c2)n1` (racemic) [Compound B7, rac-tert-Butyl[(1-(4-((3-(Sulfamoylmethyl)phenyl)amino)-1,3,5-triazin-2-yl)piperidine-2-yl)methyl]carbamate], the Kd in assay [1], in assay [2] and in assay [3] was > 10 µM throughout.

Take `C[C@@H]1CCCN1c1ncnc(Nc2cccc(CS(N)(=O)=O)c2)n1` [Compound B15, (R)-3-[(4-(2-Methylpyrrolidin-1-yl)-1,3,5-triazin-2-yl)amino]-benzenemethanesulfonamide]: the Kd in assay [1] was 0.1 to 1 µM; in assay [2], 1 to 10 µM; in assay [3] it was > 10 µM.

Turning to `COC[C@H]1CC[C@H](COC)N1c1ncnc(Nc2cccc(CS(N)(=O)=O)c2)n1` [Compound B19, 3-[(4-((2R,5R)-Bis(methoxymethyl)pyrrolidin-1-yl)-1,3,5-triazin-2-yl)amino]benzenemethanesulfonamide], the Kd in assay [1], in assay [2] and in assay [3] was > 10 µM each time.

Turning to `NS(=O)(=O)Cc1cccc(Nc2ncnc(N3CCCCC3c3ccccc3)n2)c1` (racemic) [Compound B9, rac-3-[(4-(2-Phenylpiperidin-1-yl)-1,3,5-triazin-2-yl)amino]-benzenemethanesulfonamide], the Kd in assay [1] is 0.1 to 1 µM; in assay [2], 0.1 to 1 µM; in assay [3] it was > 10 µM.

Regarding `NS(=O)(=O)Cc1cccc(Nc2ncnc(N3CCC(F)(F)CC3)n2)c1` [Compound B2, 3-[(4-(4,4-Difluoropiperidin-1-yl)-1,3,5-triazin-2-yl)amino]-benzenemethanesulfonamide], the values for the Kd in assay [1], in assay [2] and in assay [3] were 0.1 to 1 µM, 0.1 to 1 µM and > 10 µM, respectively.

`NS(=O)(=O)Cc1cccc(Nc2ncnc(N3CCc4ccccc43)n2)c1` [Compound B52, 3-[(4-(Indolin-1-yl)-1,3,5-triazin-2-yl)amino]-benzenemethane sulfonamide]: the Kd in assay [1] is < 0.1 µM; in assay [2] it was < 0.1 µM; in assay [3], > 10 µM; in assay [4], 0.1 to 1 µM.

Regarding `COC[C@@H]1CC[C@@H](COC)N1c1ncnc(Nc2cccc(CS(N)(=O)=O)c2)n1` [Compound B20], the Kd in assay [1], in assay [2] and in assay [3] was > 10 µM in each case.

Regarding `COC(=O)[C@@H]1CCCN1c1ncnc(Nc2cccc(CS(N)(=O)=O)c2)n1` [Compound B22, (S)-Methyl 1-[4-((3-(Sulfamoylmethyl)phenyl)amino)-1,3,5-triazin-2-yl]pyrrolidine-2-carboxylate], the Kd in assay [1], in assay [2] and in assay [3] was > 10 µM each time.

Turning to `NS(=O)(=O)Cc1cccc(Nc2ncnc(N3Cc4cncnc4C3)n2)c1` [Compound B50, 3-[(4-(5H-Pyrrolo[3,4-d]pyrimidin-6(7H)-yl)-1,3,5-triazin-2-yl)amino]-benzenemethanesulfonamide], the Kd is 0.1 to 1 µM in assay [1], 1 to 10 µM in assay [2] and > 10 µM in assay [3].

As for `NS(=O)(=O)Cc1cccc(Nc2ncnc(N3CCC[C@@H]3CN3CCCC3)n2)c1` [Compound B31, (R)-3-[(4-(2-((Pyrrolidin-1-yl)methyl)pyrrolidin-1-yl)-1,3,5-triazin-2-yl)amino]benzenemethanesulfonamide], the Kd in assay [1] is 1 to 10 µM; in assay [2], > 10 µM; in assay [3], > 10 µM; in assay [4], > 10 µM.
